Results: patent US4797280A, “Antibiotics produced by Kibdelosporangium aridum Shearer gen. nov., sp. nov. ATCC 39323” (SmithKline Beckman Corporation, priority 1986, dated 1989)

What was measured:
rumen inoculum = test: Rumen in vitro model; set-up: species or system steer
[1] = tested on: swine ileal or cecal inoculum; test: Swine in vitro model (ileal/cecal inoculum fermentation); set-up: species or system swine (Yorkshire barrow)
Kibdelosporangium aridum = test: Susceptibility of K. aridum to antibiotics, disk diffusion; type: cell-based; settings: disk 30 μg, 28° C., one week
Protocol: Susceptibility of K. aridum to antibiotics was examined by placing BBL susceptibility disks on nutrient agar plates seeded with K. aridum as an overlay. Diameters of the zones of inhibition were measured after incubation for one week at 28° C.
Susceptibility to Antibiotics. […] Chlortetracycline ([…]) produced 18 mm zones of inhibition; tetracycline (5 μg) 11-12 mm zones; rifampin (5 μg) 11-15 mm zones; novobiocin (5 μg) 27-28 mm zones. All zones of inhibition contained at least a few resistant colonies.

SMILES: CN[C@H](CC(C)C)C(=O)N[C@H]1C(=O)N[C@@H](CC(N)=O)C(=O)N[C@H]2C(=O)N[C@H]3C(=O)N[C@H](C(=O)N[C@H](C(=O)O)c4cc(O)cc(O)c4-c4cc3ccc4O)[C@H](O)c3ccc(c(Cl)c3)Oc3cc2cc(c3O[C@@H]2O[C@H](CO)[C@@H](O)[C@H](O)[C@H]2O[C@H]2C[C@](C)(N)[C@H](O)[C@H](C)O2)Oc2ccc(cc2Cl)[C@H]1O [Vancomycin]
- % PR (rumen inoculum; 0.5 ppm): 105% OF CONTROL
- ACE (rumen inoculum; 0.5 ppm): 95% OF CONTROL
- AMO (rumen inoculum; 0.5 ppm): 0% OF CONTROL
- BUT (rumen inoculum; 0.5 ppm): 96% OF CONTROL
- DLAC (rumen inoculum; 0.5 ppm): 0% OF CONTROL
- ETOH (rumen inoculum; 0.5 ppm): 0% OF CONTROL
- IBU (rumen inoculum; 0.5 ppm): 115% OF CONTROL
- IVA (rumen inoculum; 0.5 ppm): 82% OF CONTROL
- LLAC (rumen inoculum; 0.5 ppm): 0% OF CONTROL
- PRO (rumen inoculum; 0.5 ppm): 103% OF CONTROL
- TOTAL (rumen inoculum; 0.5 ppm): 97% OF CONTROL
- UREA (rumen inoculum; 0.5 ppm): 0% OF CONTROL
- VAL (rumen inoculum; 0.5 ppm): 95% OF CONTROL
- VFA (rumen inoculum; 0.5 ppm): 97 % Control
- % PR (rumen inoculum; 5 ppm): 130% OF CONTROL
- ACE (rumen inoculum; 5 ppm): 93% OF CONTROL
- AMO (rumen inoculum; 5 ppm): 0% OF CONTROL
- BUT (rumen inoculum; 5 ppm): 98% OF CONTROL
- DLAC (rumen inoculum; 5 ppm): 0% OF CONTROL
- ETOH (rumen inoculum; 5 ppm): 0% OF CONTROL
- IBU (rumen inoculum; 5 ppm): 137% OF CONTROL
- IVA (rumen inoculum; 5 ppm): 99% OF CONTROL
- LLAC (rumen inoculum; 5 ppm): 43% OF CONTROL
- TOTAL (rumen inoculum; 5 ppm): 108% OF CONTROL
- UREA (rumen inoculum; 5 ppm): 0% OF CONTROL
- VAL (rumen inoculum; 5 ppm): 90% OF CONTROL
- VFA (rumen inoculum; 5 ppm): 108 % Control
- Propionate % (rumen inoculum; 5 ppm, propionate as % of total VFA): 130 % Control
- % PR (rumen inoculum; 50 ppm): 127% OF CONTROL
- ACE (rumen inoculum; 50 ppm): 87% OF CONTROL
- AMO (rumen inoculum; 50 ppm): 0% OF CONTROL
- BUT (rumen inoculum; 50 ppm): 111% OF CONTROL
- DLAC (rumen inoculum; 50 ppm): 0% OF CONTROL
- ETOH (rumen inoculum; 50 ppm): 0% OF CONTROL
- IBU (rumen inoculum; 50 ppm): 164% OF CONTROL
- IVA (rumen inoculum; 50 ppm): 212% OF CONTROL
- LLAC (rumen inoculum; 50 ppm): 999% OF CONTROL
- PRO (rumen inoculum; 50 ppm): 136% OF CONTROL
- TOTAL (rumen inoculum; 50 ppm): 107% OF CONTROL
- UREA (rumen inoculum; 50 ppm): 0% OF CONTROL
- VAL (rumen inoculum; 50 ppm): 83% OF CONTROL
- VFA (rumen inoculum; 50 ppm): 107 % Control
- GLU ([1]; 1.67 ppm): 100 % Control
- LAC ([1]; 1.67 ppm): 99 % Control
- LYS ([1]; 1.67 ppm): 83 % Control
- VFA ([1]; 1.67 ppm): 92 % Control
- GLU ([1]; 16.67 ppm): 189 % Control
- LAC ([1]; 16.67 ppm): 59 % Control
- LYS ([1]; 16.67 ppm): 42 % Control
- VFA ([1]; 16.67 ppm): 280 % Control
- GLU ([1]; 166.67 ppm): 190 % Control
- LAC ([1]; 166.67 ppm): 64 % Control
- LYS ([1]; 166.67 ppm): 48 % Control
- VFA ([1]; 166.67 ppm): 250 % Control
- Susceptibility of K. aridum (Kibdelosporangium aridum): resistant
